Reference: a melting point compilation (Tetko et al.; mined from patent text by program, amines drawn as free bases though some values may be those of a salt)

Row | melting point | SMILES
1 | 119 to 120 °C | CCCCc1ncc(CC(=O)NC(CCc2ccccc2)C(=O)O)n1Cc1ccccc1Cl (racemic)
2 | 170 to 171 °C | O=C(CCN1C(=O)CSC1=S)Nc1ccccc1[N+](=O)[O-]
3 | 56 to 58 °C | CC(Cn1ncc2ccc(OCc3ccccc3)cc21)O[Si](C)(C)C(C)(C)C (stereo unspecified)
4 | 99 to 101 °C | Fc1ccc(Oc2ccnc3c(Cl)cccc23)c(Cl)c1
5 | 134 to 135 °C | COc1c(C)c(C)c(OC)c(C(O)(c2cccnc2)C2CCCCC2)c1C (stereo unspecified)
6 | 201 °C | CNc1ncnc2c1ncn2/C=C/c1cc(NC(=O)c2cccc(C(F)(F)F)c2)ccc1C
7 | 118 °C | CC(C)(C)C1=CC(=Cc2cccc([N+](=O)[O-])c2)C=C(C(C)(C)C)C1=O
8 | 250 to 254 °C | Cn1nc(-c2cccc(-n3ncc4cc(C(C)(C)C)cc(F)c4c3=O)c2CO)cc(Nc2cnc(C(F)(F)F)cn2)c1=O
9 | 91 to 93 °C | COc1cc(Oc2csc(C(F)(F)F)c2)nc(-c2ccc(C(F)(F)F)cc2)n1
10 | 177 °C | CCCCOC1(c2nc(-c3ccc(F)cc3)c(-c3ccncc3)[nH]2)CCN(C)CC1
11 | 180 °C | O=C(Nc1ccc2ccc(Cl)nc2n1)c1ccccc1Cl
12 | 185 to 186 °C | Cc1cc(C2=NN=C(C(=O)O)Cc3cc4c(cc32)OCO4)ccc1[N+](=O)[O-]
13 | 386 to 388 °C | Fc1ccc(-c2nc(S)[nH]c2-c2ccncc2)cc1
14 | 113 to 115 °C | CCCCCCCNC(=O)Nc1ccc(NC(C)=O)cc1C(=O)NC1CCN(C(c2ccccc2)c2ccccc2)CC1
15 | 87 to 88 °C | O=C(O)CCCCCOc1cc(-c2ccccc2)cc(-c2ccccc2)n1
16 | 242 to 243 °C | COc1cc(C(=O)O)ccc1CC(=O)Nc1cccc(/C=C/c2nc(C3CCC3)cs2)c1
17 | 109 to 111 °C | O=[N+]([O-])c1cccc(C2=NCN(c3cccnc3)S2)c1
18 | 150 °C | COc1cc(-n2c(C#N)c(C#N)n(C(F)F)c2=O)c(F)cc1Br
19 | 153 to 155 °C | O=C1c2ccccc2C(O)(C(F)(F)F)c2ccccc21
20 | 138 to 140 °C | COc1ccc(C(=O)c2c(-c3ccc(O)cc3)sc3cc(O)ccc23)cc1
21 | 166 to 167 °C | Cc1c(Cl)cccc1S(=O)(=O)Nc1ccc2nccnc2c1
22 | 210 °C | OCc1cc2c(N=C3SC[C@@H]4Cc5ccccc5CN34)cccc2cn1
23 | > 300 °C | Cc1cnc2c(=O)[nH]c3cc(Cl)c(Cl)cc3n12
24 | 126 to 128 °C | CONC(=O)c1cc(-c2ccc(-c3ccco3)cc2)n(-c2ccc(S(C)(=O)=O)c(F)c2)n1

Row | melting point | SMILES
25 | 136 to 138 °C | CCCc1cc(C(O)=S)cc(N)c1Oc1ccccc1
26 | 75 to 76 °C | CCOC(=O)COc1cc2cc(CC(C)C)sc2c(Cl)c1Cl
27 | 144 to 147 °C | CC(C)(C)OC(=O)N1CCC(c2nc3cc(-c4ccc(S(C)(=O)=O)cc4F)ccc3o2)CC1
28 | 93 to 94 °C | O=C(CC1CCCOC1=O)c1ccccc1 (stereo unspecified)
29 | 51.4 to 53.4 °C | CC(C)(Cc1ccc(Cl)cn1)C(N)=O
30 | 154 to 155 °C | CCCn1ncc2c(=O)[nH]c(-c3ccccc3OCC)nc21
31 | > 300 °C | O=c1ccn(-c2cc3[nH]c(=O)c(=O)[nH]c3cc2[N+](=O)[O-])cc1F
32 | 360 °C | O=C(O)c1cc(C(=O)O)cc(P(=O)(O)O)c1
33 | 152 to 154 °C | CC1(C)COc2c1cc(C=O)c(O)c2Br
34 | 189 to 192 °C | CC12CCC3c4ccc(C(=O)O)cc4CCC3C1CCC2C(=O)c1cccnc1 (stereo unspecified)
35 | 183 to 184 °C | CC(=O)N(c1ccc(O)cc1)N1CCOCC1
36 | 203 to 207 °C | COc1cc2ncnc(N3CCC(CN4C=CC(C)=NS4(=O)=O)CC3)c2cc1OC
37 | > 250 °C | CC(C)Cn1c(N)nc2c(N)nc3ccccc3c21
38 | 120 to 121 °C | N#CCCNC(=O)c1cccc(-c2ccc3c(c2)C(Oc2cccc(C(F)(F)F)c2)CC3)c1 (stereo unspecified)
39 | 246 to 249 °C | CNC(=O)c1cc(Br)cc(F)c1Nc1nc(Cl)ncc1Cl
40 | 74 to 75 °C | C=CCOc1ccc(C(=O)C=Cc2cc(OC)c(CCCC)c(OC)c2)cc1
41 | 42 to 52 °C | CCOC(=O)c1c(C(F)(F)F)nc(C(F)F)c(C(=O)OC)c1-n1cccn1
42 | 200 °C | OC1CSC(Oc2ccccc2-c2ccno2)C(O)C1O (stereo unspecified)
43 | > 210 °C | Nc1nccc(-c2c[nH]c3nccc(OCc4ccccc4)c23)n1
44 | 261 to 262 °C | Nc1nc(N)nc(C23CC4CC(CC(C4)C2)C3)n1
45 | 44 to 46 °C | CCC(CCCCc1ccccc1)(CC(=O)O)S(=O)(=O)c1ccc(OC)cc1 (stereo unspecified)
46 | 91 to 92 °C | CC(C)(C)OC(=O)[C@@H]1CCC(=O)N1
47 | 196 to 198 °C | O=C(O)Cc1ccc(NC(=O)C(COc2ccc(Cl)cc2)NS(=O)(=O)c2ccc(I)cc2)cc1 (racemic)
48 | 236 to 238 °C | O=C(Nc1ccc([N+](=O)[O-])cc1)N1CCN(c2nc(-c3ccccc3)nc3ccccc23)CC1

Row | melting point | SMILES
49 | 175 to 176 °C | CCN(C(=O)c1ccccc1C(=O)c1ccc(Cl)cc1)C(C)(C)CNS(=O)(=O)c1ccc(C)cc1
50 | 156 °C | CSc1cc(C(C)(C)C)c(O)c(C(=O)Nc2ccc(S(=O)(=O)C(F)(F)F)cc2Cl)c1C
51 | 104 to 105 °C | CCn1nc(N)nc1NCCCOc1cccc(CN(C)C)c1
52 | 72 to 74 °C | FC(F)(F)COc1ccc(OCc2ccccc2)cc1
53 | 87 to 89 °C | CCC(NC(=O)c1sc(NC(=O)c2ccccc2)nc1C)c1ccccc1 (stereo unspecified)
54 | 118 to 120 °C | CCc1cn(C2CC(N=[N+]=[N-])C(CO)O2)c(=O)[nH]c1=O (stereo unspecified)
55 | 284 to 288 °C | O=c1[nH]c2cc(Cl)ccc2c(O)c1-c1ccccc1Oc1ccccc1
56 | 266 °C | Cc1cc(=O)[nH]c2ccc(Cn3ccnc3)cc12
57 | 275 °C | O=P(O)(O)C1(P(=O)(O)O)CCCCCN1
58 | 128 to 129 °C | CC(C)(C)OC(=O)NNC(=O)c1ccc2ncsc2c1
59 | 135 to 136 °C | CC(=O)OCC(=O)C1(OC(C)=O)C(C)CC2C3CCC4=CC(=O)C=CC4(C)C3(F)C=CC21C (stereo unspecified)
60 | 188 °C | O=Cc1cnc(Sc2nc3ccccc3[nH]2)s1
61 | 198 to 199 °C | c1ccc(-c2nn3cnnc3c3ccccc23)cc1
62 | 171 to 172 °C | Cc1cc(OCC(O)CCl)c2cn[nH]c2c1 (stereo unspecified)
63 | 62 to 64 °C | CC(C)(O)c1ccc(CN)cc1
64 | 65 to 67 °C | O=S(=O)(Cc1ccccc1)On1nnc2ccccc21
65 | 253 to 255 °C | O=S(=O)(/C=C/c1ccc(I)cc1)CS(=O)(=O)/C=C/c1ccc(I)cc1
66 | 85 to 86 °C | COC(=O)c1ccccc1-c1cc(-c2ccc(Cl)cc2)on1
67 | 170 °C | COC(=O)c1ccc(C=Cc2ccc(OC)cc2)nc1
68 | 175 °C | CC(=O)C1C(C)CC2C3CCC4=CCC=CC4(C)C3CCC21C (stereo unspecified)
69 | 60 to 64 °C | COc1ccc(C2(C#Cc3ccnc(S(C)(=O)=O)n3)CCC(=O)CC2)cc1OC1CCCC1
70 | 248 to 249 °C | CSC1=NC(=O)C(=Cc2cc(C(C)(C)C)c(O)c(C(C)(C)C)c2)N1
71 | 140 to 141 °C | NCCc1ccc(-n2cnc3cnc4ccc(Cl)cc4c32)cc1
72 | 171 to 173 °C | CC1(C)OCC2Cc3cc4c(cc3C(c3ccc([N+](=O)[O-])cc3)=NN21)OCO4 (stereo unspecified)

Row | melting point | SMILES
73 | 65 °C | CN1CCC(OC(c2cccc(SCCNC(=N)NC#N)c2)c2nc3ccccc3[nH]2)CC1 (stereo unspecified)
74 | 219 to 228 °C | Cc1noc(NS(=O)(=O)c2ccc(-c3ccc(C(=O)O)cc3)s2)c1Br
75 | 109 to 111 °C | CCCCC1CCC2NC(=O)CC2C1 (stereo unspecified)
76 | 164 to 166 °C | CN(C)c1nc2n(n1)Cc1ccccc1-2
77 | 109 to 110 °C | CCOC(=O)C(=CNc1ccc(OC)c(C)n1)C(=O)OCC
78 | 126 to 128 °C | Cc1c(SCc2ccco2)ccnc1CSc1ccncc1
79 | 177 to 179 °C | CC(C)c1cc(N(C)C)cc2c1C(=O)N(COC(=O)c1c(Cl)cccc1Cl)S2(=O)=O
80 | 137 to 139 °C | CCCCN(Cc1ccc(-c2ccccc2C#N)cc1)C(=O)Cc1ccccc1C(=O)O
81 | 120 to 121 °C | COC(=O)[C@]1(OS(C)(=O)=O)C[C@H](CC(C)C)[C@@H]2O[C@@H]2C1
82 | 94 to 96 °C | O=C1OCCN1c1ccc([N+](=O)[O-])cc1Cl
83 | 114 to 116 °C | O=C(O)CCCCCOC(c1ccccc1)(c1ccccc1)c1ccccc1
84 | 179 to 186 °C | CC(Cc1ccccc1)C1CC=C2C3=C(CCC21C)C1(C)CCC(O)C(C)(C)C1CC3 (stereo unspecified)
85 | 82 °C | NC(=NCC(F)(F)F)Nc1ccn(CCO)n1
86 | 179 °C | CS(=O)c1ccc(CSc2nc(-c3ccc(F)cc3)c(-c3ccnc(Cl)c3)[nH]2)cc1 (stereo unspecified)
87 | 73 to 74 °C | O=Cc1cc(Cl)ccc1OCCc1ccccc1
88 | 120 to 123 °C | CN(C)CCCOc1ccc(-c2nnc(CSCCOc3ccccc3)n2-c2ccccc2)cc1
89 | 137 °C | CCCCCCCCCCCCCCCCC(=O)Nc1ccc(O)cc1
90 | 247 to 249 °C | COc1ccc(-c2ccc3c(c2)C=C(C(=O)Nc2ccc(CN(C)C4CCOCC4)cc2)CCS3(=O)=O)cc1
91 | 203 to 206 °C | CCCc1c(OCc2ccc(C(=O)O)cc2F)ccc(C(C)=O)c1O
92 | 118 to 119 °C | N#Cc1cc(-c2ccccn2)nn1-c1ccc(NC(=O)c2ccncc2F)cc1
93 | 111 to 113 °C | CC(=O)N1CCC(C(=O)c2ccc(Br)cc2F)CC1
94 | 158 °C | Cc1ccc(S(=O)(=O)N2CCCC2c2ccncc2)cc1 (racemic)
95 | 88.1 to 88.7 °C | COc1ccc(C=CC(=O)c2cccc([N+](=O)[O-])c2)c(OC)c1
96 | 189 to 190 °C | COC(=O)c1cc2ccc(C(=O)OC(C)(C)C)cc2[nH]1

Row | SMILES | melting point
97 | CN1CCC2(CCc3cc4ccccc4n3C2)C1 (stereo unspecified) | 55 to 58 °C
98 | COc1ccc2c(c1Br)CCC1CN(C)CC21 (stereo unspecified) | 144 to 146 °C
99 | CCC(C)(C)c1cc(-n2nc3ccccc3n2)c(O)c(C(C)(C)CC)c1 | 77 to 79 °C
100 | COc1ccc2c(c1)C(=O)C1CCCCN1C2 (stereo unspecified) | 117 to 119 °C
101 | Cc1nnc(C(C)C)n1C1CC2CCC(C1)N2CCC(NC(=O)C1CCC(F)(F)CC1)c1ccc(N)cc1 (stereo unspecified) | 103 to 105 °C
